# Assay results taken from patent publication US20240294519A1, “PYRROLO[2,3-b]PYRIDINE PGDH INHIBITORS AND METHODS OF MAKING AND USING” (EPIRIUM BIO INC., priority 2021, published 2024).
# Target: T1, 15-PGDH/HPGD (Homo sapiens, UniProt P15428)
# T1 construct: purchased R&D System 5660-DH
# T1 sequence (P15428 1-266): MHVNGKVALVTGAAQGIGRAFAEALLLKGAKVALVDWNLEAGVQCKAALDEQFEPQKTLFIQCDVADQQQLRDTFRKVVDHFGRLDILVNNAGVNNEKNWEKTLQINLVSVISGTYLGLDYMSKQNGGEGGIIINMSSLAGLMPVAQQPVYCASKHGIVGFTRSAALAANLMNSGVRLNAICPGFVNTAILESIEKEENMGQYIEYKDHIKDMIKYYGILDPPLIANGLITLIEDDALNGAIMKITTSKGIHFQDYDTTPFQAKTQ
# Experiment: hPGDH inhibitor screening biochemical assay
# Conditions: 10 nM enzyme, 15 μM PGE2, 0.25 mM NAD, fluorescence ex/em 340/485 nm
# Procedure: A hydroxyprostaglandin dehydrogenase inhibition screening biochemical assay can be performed to assess the synthesized inhibitors provided herein. Provided herein is an exemplary biochemical assay for hPGDH inhibitor screening.
# The in vitro biochemical assay can be performed in white, 384 plates in total 20 μl reaction volume consisting of 10 nM of 15-PGDH/HPGD (R&D System #5660-DH), 15 μM Prostaglandin E2 (Sigma, C8 t #P5640-10 MG) and 0.25 mM β-Nicotinamide adenine dinucleotide sodium salt (Sigma, C8 t #N0632-5G) made in reaction buffer (50 mM Tris-HCl, pH 7.5, 0.01% Tween 20) at 10-point dose response curve for test/tool compounds. Briefly, 5 μl (4×) of compounds solution and 5 μl (final concentration, 10 nM) of enzyme solution is added to white 384 well plates and incubated for 10 mins at 37° C. 5 μl (4×) of […] and 5 μl (4×) of β-Nicotinamide adenine dinucleotide sodium salt is added to the wells and incubated for 10 mins at room temperature. Fluorescence is recorded at ex/em=340 nm/485 nm. The percentage (%) inhibition of enzyme activity was determined relative to positive control (1% DMSO) and IC50 was calculated using GraphPad prism software (four parameter-variable slope equation).
row,IC50 [nM],Structure (SMILES)
1,< 100,CN1CCN(c2ccc(-n3ccc4cc(C(=O)N5CCC(F)(F)CC5)cnc43)cn2)C1=O [Compound B-91]
2,< 100,"O=C(c1cnc2c(ccn2-c2cnc(-c3ncn[nH]3)nc2)c1)N1CCC(F)(F)CC1 [Compound B-45, (1-(2-(1H-1,2,4-triazol-5-yl)pyrimidin-5-yl)-1H-pyrrolo[2,3-b]pyridin-5-yl)(4,4-difluoropiperidin-1-yl)methanone]"
3,< 100,C[C@@]1(O)CCCN(C(=O)c2cnc3c(ccn3-c3cccc(-c4nnc[nH]4)c3)c2)C1 [Compound B-244]
4,< 100,C[C@@H]1CCN(C(=O)c2cnc3c(ccn3-c3ccc(C(=O)O)cc3)c2)C1 [Compound B-5]
5,< 100,CO[C@H]1CCCN(C(=O)c2cnc3c(ccn3-c3ccc(-c4nnc[nH]4)c(Cl)c3)c2)C1 [Compound B-252]
6,< 100,O=C(c1cnc2c(ccn2-c2cccc(-c3nnc[nH]3)c2)c1)N1CCC[C@H](O)C1 [Compound B-260]
7,< 100,O=C(c1cnc2c(ccn2-c2ccc(-c3nnc[nH]3)c(F)c2)c1)N1CCSCC1 [Compound B-254]
8,< 100,Cc1cnc(-c2cncc(-n3ccc4cc(C(=O)N5CCC(F)(F)CC5)cnc43)c2)[nH]1 [Compound B-14]
9,< 100,O=C(c1cnc2c(ccn2-c2ccc(-c3nnc[nH]3)cc2)c1)N1CCC[C@@H](C(F)(F)F)C1 [Compound B-228]
10,100 to 1000,O=C(c1cnc2c(ccn2-c2ccc(-c3nnc[nH]3)c(Cl)c2)c1)N1CC[S+]([O-])CC1 [Compound B-261]
11,< 100,N#Cc1ccc(-n2ccc3cc(C(=O)N4CC[C@H](F)C4)cnc32)cc1 [Compound B-127]
12,< 100,Cc1cnc(-c2ccc(-n3ccc4cc(C(=O)N5CCC(F)(F)CC5)cnc43)cn2)[nH]1 [Compound B-17]
13,< 100,N#Cc1cc(-n2ccc3cc(C(=O)N4CCC(F)(F)CC4)cnc32)ccc1-c1nnc[nH]1 [Compound B-273]
14,< 100,CCOC(=O)Nc1cncc(-n2ccc3cc(C(=O)N4CCSCC4)cnc32)c1 [Compound B-230]
15,< 100,Cc1nc(-c2cncc(-n3ccc4cc(C(=O)N5CCC(F)(F)CC5)cnc43)c2)c[nH]1 [Compound B-15]
16,< 100,CO[C@@H]1CCCN(C(=O)c2cnc3c(ccn3-c3ccc(-c4nnc[nH]4)c(Cl)c3)c2)C1 [Compound B-245]
17,< 100,CC1(O)CCCN(C(=O)c2cnc3c(ccn3-c3cc(F)cc(-c4nnc[nH]4)c3)c2)C1 (stereo not drawn) [Compound B-241]
18,< 100,COC(=O)Nc1cncc(-n2ccc3cc(C(=O)N4CCC[C@@H](C(F)(F)F)C4)cnc32)c1 [Compound B-66]
19,< 100,"COc1ccc(Cn2cc(-c3ccc(-n4ccc5cc(C(=O)N6CCC(F)(F)CC6)cnc54)cn3)nc2C)cc1 [Compound B-24, (4,4-difluoropiperidin-1-yl) (1-(6-(1-(4-methozybenzyl)-2-methyl-1H-imidazol-4-yl)pyridin-3-yl)-1H-pyrrolo[2,3-b]pyridin-5-yl)methanone]"
20,< 100,COc1cc(-n2ccc3cc(C(=O)N4CCC(F)(F)CC4)cnc32)ccc1-c1nnc[nH]1 [Compound B-266]
21,< 100,O=C(c1cnc2c(ccn2-c2cccc(-c3ncc[nH]3)c2)c1)N1CCC[C@@H](O)C1 [Compound B-269]
22,< 100,C[C@@H]1CN(C(=O)c2cnc3c(ccn3-c3ccc(N4CCOC4=O)nc3)c2)CCC1(F)F [Compound B-75]
23,< 100,CC(C)OC(=O)Nc1cncc(-n2ccc3cc(C(=O)N4CCSCC4)cnc32)c1 [Compound B-256]
24,< 100,COc1cc(-c2nnc[nH]2)cc(-n2ccc3cc(C(=O)N4CCC(F)(F)CC4)cnc32)c1 [Compound B-263]
25,< 100,O=C(c1cnc2c(ccn2-c2cnn(C3CCOCC3)c2)c1)N1CCC(F)(F)CC1 [Compound B-94]
26,< 100,O=C(c1cnc2c(ccn2-c2ccc(-c3nnc[nH]3)cc2)c1)N1CCSCC1 [Compound B-227]

row,IC50 [nM],Structure (SMILES)
1,< 100,O=C(c1cnc2c(ccn2-c2ccc(-c3cnc[nH]3)cc2)c1)N1CCC(F)(F)CC1 [Compound B-226]
2,< 100,Cc1nnc(-c2ccc(-n3ccc4cc(C(=O)N5CCC(F)(F)CC5)cnc43)cc2)[nH]1 [Compound B-74]
3,< 100,"CC1CCCN(C(=O)c2cnc3c(ccn3-c3ccc(C#N)cc3)c2)C1 (stereo in doubt) [Compound B-10, (R)-4-(5-(3-methylpiperidine-1-carbonyl)-1H-pyrrolo[2,3-b1 pyridin-1-yl)benzonitrile]"
4,< 100,CO[C@H]1CCCN(C(=O)c2cnc3c(ccn3-c3cc(Cl)cc(-c4nnc[nH]4)c3)c2)C1 [Compound B-250]
5,< 100,CC1(C)CCN(C(=O)c2cnc3c(ccn3-c3ccc(-c4ncn[nH]4)nc3)c2)C1 [Compound B-42]
6,< 100,CC1(O)CCCN(C(=O)c2cnc3c(ccn3-c3ccc(-c4nnc[nH]4)c(F)c3)c2)C1 (stereo not drawn) [Compound B-239]
7,< 100,CN(C)c1nnc(-c2ccc(-n3ccc4cc(C(=O)N5CCC(F)(F)CC5)cnc43)cc2)[nH]1 [Compound B-77]
8,< 100,O=C(c1cnc2c(ccn2-c2ccc(-c3nnc[nH]3)cc2)c1)N1CCCC(F)(F)C1 [Compound B-61]
9,< 100,"Nc1nc(-c2cncc(-n3ccc4cc(C(=O)N5CCC(F)(F)CC5)cnc43)c2)no1 [Compound B-11, (1-(5-(5-amino-1,2,4-oxadiazol-3-yl)pyridin-3-yl)-1H-pyrrolo [2,3-b]pyridin-5-yl)(4,4-difluoropiperidin-1-yl)methanone]"
10,100 to 1000,O=C(c1cnc2c(ccn2-c2ccc(N3CCN(c4ccc(-n5ccc6cc(C(=O)N7CCC(F)(F)CC7)cnc65)cn4)C3=O)nc2)c1)N1CCC(F)(F)CC1 [Compound B-13]
11,100 to 1000,COCCn1cc(-n2ccc3cc(C(=O)N4CCC(F)(F)CC4)cnc32)cn1 [Compound B-62]
12,< 100,CO[C@H]1CCCN(C(=O)c2cnc3c(ccn3-c3cc(F)cc(-c4nnc[nH]4)c3)c2)C1 [Compound B-242]
13,< 100,CC1(O)CCCN(C(=O)c2cnc3c(ccn3-c3ccc(-c4nnc[nH]4)c(Cl)c3)c2)C1 (stereo not drawn) [Compound B-258]
14,< 100,O=C(c1cnc2c(ccn2-c2cc(Cl)cc(-c3nnc[nH]3)c2)c1)N1CCC[C@H](O)C1 [Compound B-265]
15,< 100,CC(C)c1nnc(-c2ccc(-n3ccc4cc(C(=O)N5CCC(F)(F)CC5)cnc43)cc2)[nH]1 [Compound B-58]
16,< 100,"O=C(c1cnc2c(ccn2-c2ccc(-c3nnc[nH]3)cc2)c1)N1CCC(F)(F)CC1 [Compound B-26, (1-(4-(1H-1,2,4-triazol-5-yl)phenyl)-1H-pyrrolo[2,3-b]pyridin-5-yl)(4,4-difluoropiperidin-1-yl)methanone]"
17,< 100,"Cc1nnc(-c2cncc(-n3ccc4cc(C(=O)N5CCC(F)(F)CC5)cnc43)c2)[nH]1 [Compound B-22, (4,4-difluoropiperidin-1-yl) (1-(5-(5-methyl-4H-1,2,4-triazol-3-yl)pyridin-3-yl)-1H-pyrrolo[2,3-b]pyridine-5-yl) methanone]"
18,< 100,CCOC(=O)Nc1cncc(-n2ccc3cc([S+]([O-])C4CC4)cnc32)c1 (stereo not drawn) [Compound B-315]
19,< 100,"C[C@H]1CCCN(C(=O)c2cnc3c(ccn3-c3ccc(-c4nc[nH]n4)cn3)c2)C1 [Compound B-35, (S)-(1-(5-(4H-1,2,4-triazol-3-yl)pyridin-2-yl)-1H-pyrrolo[2,3-b]pyridin-5-yl)(3-methylpiperidin-1-yl)methanone]"
20,< 100,O=C(c1cnc2c(ccn2-c2ccc(-c3cn[nH]c3)cc2)c1)N1CCC(F)(F)CC1 [Compound B-233]
21,< 100,"O=C(c1cnc2c(ccn2-c2cncc(-c3n[nH]c(C4CC4)n3)c2)c1)N1CCC(F)(F)CC1 [Compound B-1, (1-(5-(5-cyclopropyl-1H-1,2,4-triazol-3-yl)pyridin-3-yl)-1H-pyrrolo [2,3-b]pyridin-5-yl)(4,4-difluoropiperidin-1-yl)methanone]"
22,< 100,C[C@H]1CN(C(=O)c2cnc3c(ccn3-c3ccc(N4CCOC4=O)nc3)c2)CCC1(F)F [Compound B-76]
23,< 100,"COc1ccc(Cn2cc(-c3cncc(-n4ccc5cc(C(=O)N6CCC(F)(F)CC6)cnc54)c3)nc2C)cc1 [Compound B-23, (4,4-difluoropiperidin-1-yl)(1-(5-(1-(4-methoxybenzyl)-2-methyl-1H-imidazol-4-yl)pyridin-3-yl)-1H-pyrrolo [2,3-b]pyridin-5-yl)methanone]"
24,< 100,"CCC1CCCN(C(=O)c2cnc3c(ccn3-c3cncc(NC(=O)OC)c3)c2)C1 (stereo in doubt) [Compound B-69, methyl(R)-(5-(5-(3-ethylpiperidine-1-carbonyl)-1H-pyrrolo[2,3-b]pyridin-1-yl)pyridin-3-yl)carbamate]"
25,< 100,O=C(c1cnc2c(ccn2-c2ccc3nc(N4CCOCC4)nn3c2)c1)N1CCCC(F)(F)C1 [Compound B-60]
